Results reported in US8252825B2, “Angiotensin II receptor antagonists” (NicOx, priority 2007, dated 2012).

Assays:
[1] = tested on: conscious telemetered dogs; assay: Systolic blood pressure lowering after oral administration to conscious telemetered dogs; assay type: in vivo, dog; conditions: 10 mg/kg
Source text: Compounds 1 and 2 shown below were studied for systolic blood pressure lowering when orally administered to conscious telemetered dogs.

[2] = tested on: isolated rabbit thoracic aorta preparations; assay: Vessel relaxation assay in isolated rabbit thoracic aorta rings; assay type: cell-based; conditions: Oryctolagus cuniculus; rabbit aortic rings precontracted with noradrenaline, functional endothelium
Protocol: The ability of the compounds to induce vasorelaxation was tested in vitro in isolated rabbit thoracic aorta preparations (Wanstall J. C. et al., Br. J. Pharmacol., 134:463-472, 2001). Male New Zealand rabbits were anaesthetized with thiopental-Na (50 mg/kg, iv), sacrificed by exsanguinations and then the thorax was opened and the aorta dissected. Aortic ring preparations (4 mm in length) were set up in physiological salt solution (PSS) at 37° C. in small organ chambers (5 ml). The composition of PSS was (mM): NaCl 130, NaHCO3 14.9, KH2PO4 1.2, MgSO4 1.2, HEPES 10, CaCl2, ascorbic acid […] and glucose 1.1 (95% O2/5% CO2; pH 7.4). Each ring was mounted under 2 g passive tension. Isometric tension was recorded with a Grass transducer (Grass FT03) attached to a BIOPAC MP150 System. Preparations were allowed to equilibrate for 1 h, and then contracted submaximally with noradrenaline (NA, 1 μM) and, when the contraction was stable, acetylcholine (ACh, 10 μM) was added. A relaxant response to ACh indicated the presence of a functional endothelium. […] When a stable precontraction was reached, a cumulative concentration-response curve to either of the vasorelaxant agents was obtained in the presence of a functional endothelium. Each arterial ring was exposed to only one combination of inhibitor and vasorelaxant. […]
Example 3 and 4 were evaluated for vessel relaxation.

SMILES	Approximate change in systolic blood pressure (mmHg), 1-6 h ([1]; 1-6 h)	Approximate change in systolic blood pressure (mmHg), 6-12 h ([1]; 6-12 h)	Approximate change in systolic blood pressure (mmHg), 12-18 h ([1]; 12-18 h)	EC50 [2]
CCCCc1nc(Cl)c(C(=O)OC(C)OC(=O)OCCCC[C@H](CO[N+](=O)[O-])O[N+](=O)[O-])n1Cc1ccc(-c2ccccc2-c2nnn[nH]2)cc1 (some centres unmarked) [Compound 1]	−14 mmHg	−7 mmHg	3 mmHg	–
CCCCc1nc(Cl)c(C(=O)OC(C)OC(=O)OCCC(C)[C@@H](O[N+](=O)[O-])[C@@H](C)O[N+](=O)[O-])n1Cc1ccc(-c2ccccc2-c2nnn[nH]2)cc1 (stereo partly drawn) [Example 3, 1-[({[(4R,5R)-3-methyl-4,5-bis(nitrooxy)hexyl]oxy}carbonyl)oxy]ethyl 2-butyl-4-chloro-1-{[2′-(1H-tetrazol-5-yl)biphenyl-4-yl]methyl}-1H-imidazole-5-carboxylate]	–	–	–	8.5 µM
CCOc1nc2cccc(C(=O)OC(C)(C)OC(=O)OCCC(C)[C@@H](O[N+](=O)[O-])[C@@H](C)O[N+](=O)[O-])c2n1Cc1ccc(-c2ccccc2-c2nnn[nH]2)cc1 (stereo partly drawn) [Example 4, 1-[({[(4R,5R)-3 Methyl-4,5-bis(nitrooxy)hexyl]oxy}carbonyl)oxy]-1-methylethyl 2-ethoxy-1-{[2′-(1H-tetrazol-5-yl)biphenyl-4-yl]methyl}-1H-benzimidazole-7-carboxylate]	–	–	–	6.4 µM
